Results reported in PMC8909834, “An Orally Bioavailable and Highly Efficacious Inhibitor of CDK9/FLT3 for the Treatment of Acute Myeloid Leukemia” (Cancers, 2022).

Experiments:
Assay in all cases: Kinase Hotspot radiolabel assay
Type in all cases: biochemical
Details in all cases: read-out: % Residual Activity
PKCa = target: T1, PKCa (Homo sapiens, UniProt P17252)
T1 construct: purchased Reaction Biology Corporation (Kinase HotSpot)
How it was run: (§1)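 1 µM cpd; 369-kinase radiolabel Hotspot panel; Ki run for hits >90% inhibition.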

LATS2 = target: T2, LATS2 (Homo sapiens, UniProt Q9NRM7)
T2 construct: purchased Reaction Biology Corporation (Kinase HotSpot)
How it was run: as §1

PKCd = target: T3, PKCd (Homo sapiens, UniProt Q05655)
T3 construct: purchased Reaction Biology Corporation (Kinase HotSpot)
How it was run: as §1

STK38L/NDR2 = target: T4, STK38L/NDR2 (Homo sapiens, UniProt Q9Y2H1)
T4 construct: purchased Reaction Biology Corporation (Kinase HotSpot)
How it was run: as §1

CK1d = target: T5, CK1d (Homo sapiens, UniProt P48730)
T5 construct: purchased Reaction Biology Corporation (Kinase HotSpot)
How it was run: as §1

CDK6/cyclin D3 = target: T6, CDK6/cyclin D3 (Homo sapiens, UniProt Q00534)
T6 construct: purchased Reaction Biology Corporation (Kinase HotSpot)
How it was run: as §1

MLK4 = target: T7, MLK4 (Homo sapiens, UniProt Q5TCX8)
T7 construct: purchased Reaction Biology Corporation (Kinase HotSpot)
How it was run: as §1

CDK3/cyclin E = target: T8, CDK3/cyclin E (Homo sapiens, UniProt Q00526)
T8 construct: purchased Reaction Biology Corporation (Kinase HotSpot)
How it was run: as §1

CDK6/cyclin D1 = target: T9, CDK6/cyclin D1 (Homo sapiens, UniProt Q00534)
T9 construct: purchased Reaction Biology Corporation (Kinase HotSpot)
How it was run: as §1

PAK5 = target: T10, PAK5 (Homo sapiens, UniProt Q9P286)
T10 construct: purchased Reaction Biology Corporation (Kinase HotSpot)
How it was run: as §1

CDK1/cyclin B = target: T11, CDK1/cyclin B (Homo sapiens, UniProt P06493)
T11 construct: purchased Reaction Biology Corporation (Kinase HotSpot)
How it was run: as §1

SGK1 = target: T12, SGK1 (Homo sapiens, UniProt O00141)
T12 construct: purchased Reaction Biology Corporation (Kinase HotSpot)
How it was run: as §1

ERN1/IRE1 = target: T13, ERN1/IRE1 (Homo sapiens, UniProt O75460)
T13 construct: purchased Reaction Biology Corporation (Kinase HotSpot)
How it was run: as §1

GSK3b = target: T14, GSK3b (Homo sapiens, UniProt P49841)
T14 construct: purchased Reaction Biology Corporation (Kinase HotSpot)
How it was run: as §1

MLCK2/MYLK2 = target: T15, MLCK2/MYLK2 (Homo sapiens, UniProt Q9H1R3)
T15 construct: purchased Reaction Biology Corporation (Kinase HotSpot)
How it was run: as §1

EPHA8 = target: T16, EPHA8 (Homo sapiens, UniProt P29322)
T16 construct: purchased Reaction Biology Corporation (Kinase HotSpot)
How it was run: as §1

LYN B = target: T17, LYN B (Homo sapiens, UniProt P07948)
T17 construct: purchased Reaction Biology Corporation (Kinase HotSpot)
How it was run: as §1

MELK = target: T18, MELK (Homo sapiens, UniProt Q14680)
T18 construct: purchased Reaction Biology Corporation (Kinase HotSpot)
How it was run: as §1

AKT1 = target: T19, AKT1 (Homo sapiens, UniProt P31749)
T19 construct: purchased Reaction Biology Corporation (Kinase HotSpot)
How it was run: as §1

TYK1/LTK = target: T20, TYK1/LTK (Homo sapiens, UniProt P29376)
T20 construct: purchased Reaction Biology Corporation (Kinase HotSpot)
How it was run: as §1

GRK1 = target: T21, GRK1 (Homo sapiens, UniProt Q15835)
T21 construct: purchased Reaction Biology Corporation (Kinase HotSpot)
How it was run: as §1

LATS1 = target: T22, LATS1 (Homo sapiens, UniProt O95835)
T22 construct: purchased Reaction Biology Corporation (Kinase HotSpot)
How it was run: as §1

IKKb/IKBKB = target: T23, IKKb/IKBKB (Homo sapiens, UniProt O14920)
T23 construct: purchased Reaction Biology Corporation (Kinase HotSpot)
How it was run: as §1

ERK2/MAPK1 = target: T24, ERK2/MAPK1 (Homo sapiens, UniProt P28482)
T24 construct: purchased Reaction Biology Corporation (Kinase HotSpot)
How it was run: as §1

RSK4 = target: T25, RSK4 (Homo sapiens, UniProt Q9UK32)
T25 construct: purchased Reaction Biology Corporation (Kinase HotSpot)
How it was run: as §1

VRK2 = target: T26, VRK2 (Homo sapiens, UniProt Q86Y07)
T26 construct: purchased Reaction Biology Corporation (Kinase HotSpot)
How it was run: as §1

SNARK/NUAK2 = target: T27, SNARK/NUAK2 (Homo sapiens, UniProt Q9H093)
T27 construct: purchased Reaction Biology Corporation (Kinase HotSpot)
How it was run: as §1

CDK19/cyclin C = target: T28, CDK19/cyclin C (Homo sapiens, UniProt Q9BWU1)
T28 construct: purchased Reaction Biology Corporation (Kinase HotSpot)
How it was run: as §1

TGFBR2 = target: T29, TGFBR2 (Homo sapiens, UniProt P37173)
T29 construct: purchased Reaction Biology Corporation (Kinase HotSpot)
How it was run: as §1

CDK4/cyclin D3 = target: T30, CDK4/cyclin D3 (Homo sapiens, UniProt P11802)
T30 construct: purchased Reaction Biology Corporation (Kinase HotSpot)
How it was run: as §1

T10 sequence (Q9P286 whole entry): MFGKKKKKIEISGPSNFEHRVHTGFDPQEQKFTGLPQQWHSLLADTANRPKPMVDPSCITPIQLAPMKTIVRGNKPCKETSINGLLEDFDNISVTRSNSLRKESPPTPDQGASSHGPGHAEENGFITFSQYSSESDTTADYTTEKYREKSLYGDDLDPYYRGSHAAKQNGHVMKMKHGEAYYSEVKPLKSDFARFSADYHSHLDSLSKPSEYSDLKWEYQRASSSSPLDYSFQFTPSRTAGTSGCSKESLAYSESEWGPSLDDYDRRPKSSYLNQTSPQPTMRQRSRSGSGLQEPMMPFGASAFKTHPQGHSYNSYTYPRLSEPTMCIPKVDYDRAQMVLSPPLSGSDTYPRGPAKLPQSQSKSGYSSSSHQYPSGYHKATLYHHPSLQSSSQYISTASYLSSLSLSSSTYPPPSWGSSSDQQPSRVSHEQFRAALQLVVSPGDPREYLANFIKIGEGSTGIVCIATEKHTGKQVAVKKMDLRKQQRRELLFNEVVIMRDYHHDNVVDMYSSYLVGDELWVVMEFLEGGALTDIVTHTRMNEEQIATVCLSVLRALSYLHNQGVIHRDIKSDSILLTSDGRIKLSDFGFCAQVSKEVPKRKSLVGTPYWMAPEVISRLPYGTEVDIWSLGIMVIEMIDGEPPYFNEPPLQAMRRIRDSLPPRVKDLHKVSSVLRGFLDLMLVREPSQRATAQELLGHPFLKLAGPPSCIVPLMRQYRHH
T8 sequence (Q00526 whole entry): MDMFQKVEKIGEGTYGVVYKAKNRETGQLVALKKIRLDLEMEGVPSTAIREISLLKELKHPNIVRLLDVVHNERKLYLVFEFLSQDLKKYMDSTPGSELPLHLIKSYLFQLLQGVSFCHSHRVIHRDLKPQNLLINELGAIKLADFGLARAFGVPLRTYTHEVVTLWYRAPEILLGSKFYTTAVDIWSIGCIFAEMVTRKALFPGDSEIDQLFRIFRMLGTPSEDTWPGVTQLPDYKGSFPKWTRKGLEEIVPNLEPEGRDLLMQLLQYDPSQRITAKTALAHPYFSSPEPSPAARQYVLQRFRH
T8 sequence (P24864 whole entry partner): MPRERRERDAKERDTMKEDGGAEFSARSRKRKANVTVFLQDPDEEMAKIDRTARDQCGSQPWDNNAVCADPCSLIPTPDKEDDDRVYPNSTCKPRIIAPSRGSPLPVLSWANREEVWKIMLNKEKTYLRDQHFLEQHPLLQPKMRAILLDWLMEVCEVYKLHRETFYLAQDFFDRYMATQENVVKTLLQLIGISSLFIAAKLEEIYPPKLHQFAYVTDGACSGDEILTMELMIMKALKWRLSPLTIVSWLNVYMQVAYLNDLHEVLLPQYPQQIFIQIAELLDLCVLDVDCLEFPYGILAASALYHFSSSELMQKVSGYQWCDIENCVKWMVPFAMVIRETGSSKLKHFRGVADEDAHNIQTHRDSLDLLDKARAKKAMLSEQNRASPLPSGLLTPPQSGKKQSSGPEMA
T18 sequence (Q14680 whole entry): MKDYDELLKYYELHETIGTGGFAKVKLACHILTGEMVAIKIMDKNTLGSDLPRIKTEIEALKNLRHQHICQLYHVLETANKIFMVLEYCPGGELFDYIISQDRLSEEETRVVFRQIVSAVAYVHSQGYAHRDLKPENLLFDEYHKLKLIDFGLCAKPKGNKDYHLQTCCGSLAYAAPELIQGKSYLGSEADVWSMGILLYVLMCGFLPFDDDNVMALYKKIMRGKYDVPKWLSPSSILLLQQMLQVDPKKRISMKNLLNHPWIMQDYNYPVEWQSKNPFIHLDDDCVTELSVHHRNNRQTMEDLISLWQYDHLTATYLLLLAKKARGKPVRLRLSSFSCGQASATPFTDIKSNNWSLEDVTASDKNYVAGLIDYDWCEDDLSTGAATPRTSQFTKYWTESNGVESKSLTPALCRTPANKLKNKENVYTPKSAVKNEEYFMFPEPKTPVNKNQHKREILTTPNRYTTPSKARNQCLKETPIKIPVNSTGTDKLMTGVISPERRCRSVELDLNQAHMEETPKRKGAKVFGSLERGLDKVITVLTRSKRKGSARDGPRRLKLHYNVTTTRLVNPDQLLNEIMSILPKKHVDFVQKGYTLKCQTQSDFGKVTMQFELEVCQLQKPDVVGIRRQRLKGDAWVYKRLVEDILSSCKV
T24 sequence (P28482 whole entry): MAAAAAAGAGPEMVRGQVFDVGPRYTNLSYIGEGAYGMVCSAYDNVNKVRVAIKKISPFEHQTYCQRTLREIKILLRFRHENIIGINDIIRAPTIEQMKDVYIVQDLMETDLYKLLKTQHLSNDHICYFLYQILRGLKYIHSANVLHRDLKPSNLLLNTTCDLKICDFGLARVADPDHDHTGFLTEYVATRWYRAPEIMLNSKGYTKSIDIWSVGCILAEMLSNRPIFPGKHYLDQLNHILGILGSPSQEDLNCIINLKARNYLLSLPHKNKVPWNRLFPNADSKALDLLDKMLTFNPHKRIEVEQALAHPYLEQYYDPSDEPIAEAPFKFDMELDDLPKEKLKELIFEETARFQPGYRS
T22 sequence (O95835 whole entry): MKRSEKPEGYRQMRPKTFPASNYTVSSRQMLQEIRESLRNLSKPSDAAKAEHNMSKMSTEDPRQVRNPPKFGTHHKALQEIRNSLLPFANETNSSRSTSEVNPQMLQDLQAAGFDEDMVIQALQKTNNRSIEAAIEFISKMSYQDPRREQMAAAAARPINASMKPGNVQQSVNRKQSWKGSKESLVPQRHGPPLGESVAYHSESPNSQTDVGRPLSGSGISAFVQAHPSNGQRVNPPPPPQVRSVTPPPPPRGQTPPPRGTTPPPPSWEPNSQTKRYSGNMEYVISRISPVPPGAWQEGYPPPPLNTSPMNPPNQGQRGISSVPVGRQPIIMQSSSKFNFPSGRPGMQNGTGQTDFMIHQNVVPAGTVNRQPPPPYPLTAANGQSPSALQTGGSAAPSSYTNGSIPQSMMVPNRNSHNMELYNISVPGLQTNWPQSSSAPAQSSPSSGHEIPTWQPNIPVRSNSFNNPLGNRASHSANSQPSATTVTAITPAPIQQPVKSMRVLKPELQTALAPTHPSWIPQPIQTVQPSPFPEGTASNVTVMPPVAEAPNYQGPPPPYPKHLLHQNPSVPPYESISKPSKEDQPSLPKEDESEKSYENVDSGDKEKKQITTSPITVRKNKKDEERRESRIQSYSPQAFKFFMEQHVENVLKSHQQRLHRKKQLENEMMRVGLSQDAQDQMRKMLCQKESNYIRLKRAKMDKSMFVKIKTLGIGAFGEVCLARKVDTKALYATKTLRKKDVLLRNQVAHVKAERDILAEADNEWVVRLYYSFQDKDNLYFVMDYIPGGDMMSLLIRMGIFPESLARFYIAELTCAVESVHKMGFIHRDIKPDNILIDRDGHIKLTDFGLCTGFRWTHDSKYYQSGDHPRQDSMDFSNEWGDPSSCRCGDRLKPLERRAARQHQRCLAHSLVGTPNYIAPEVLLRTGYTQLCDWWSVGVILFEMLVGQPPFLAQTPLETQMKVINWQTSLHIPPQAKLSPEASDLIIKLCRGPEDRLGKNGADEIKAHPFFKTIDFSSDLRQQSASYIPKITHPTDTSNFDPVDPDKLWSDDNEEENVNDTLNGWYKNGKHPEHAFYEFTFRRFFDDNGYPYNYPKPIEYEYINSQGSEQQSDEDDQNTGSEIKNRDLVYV
T26 sequence (Q86Y07 whole entry): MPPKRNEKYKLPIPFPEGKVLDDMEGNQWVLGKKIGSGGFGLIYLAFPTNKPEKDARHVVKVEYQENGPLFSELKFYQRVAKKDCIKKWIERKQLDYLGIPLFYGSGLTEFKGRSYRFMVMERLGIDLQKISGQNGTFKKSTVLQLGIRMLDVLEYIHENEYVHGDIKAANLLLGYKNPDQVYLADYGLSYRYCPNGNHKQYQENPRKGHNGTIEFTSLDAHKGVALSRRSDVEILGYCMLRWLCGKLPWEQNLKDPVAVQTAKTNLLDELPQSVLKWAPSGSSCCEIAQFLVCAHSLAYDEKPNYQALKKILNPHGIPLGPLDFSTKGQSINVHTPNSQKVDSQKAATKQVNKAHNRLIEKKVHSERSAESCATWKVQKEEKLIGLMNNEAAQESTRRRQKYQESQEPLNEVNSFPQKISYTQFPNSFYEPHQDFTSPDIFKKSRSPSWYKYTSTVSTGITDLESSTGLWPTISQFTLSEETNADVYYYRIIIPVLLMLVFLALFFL
T19 sequence (P31749 whole entry): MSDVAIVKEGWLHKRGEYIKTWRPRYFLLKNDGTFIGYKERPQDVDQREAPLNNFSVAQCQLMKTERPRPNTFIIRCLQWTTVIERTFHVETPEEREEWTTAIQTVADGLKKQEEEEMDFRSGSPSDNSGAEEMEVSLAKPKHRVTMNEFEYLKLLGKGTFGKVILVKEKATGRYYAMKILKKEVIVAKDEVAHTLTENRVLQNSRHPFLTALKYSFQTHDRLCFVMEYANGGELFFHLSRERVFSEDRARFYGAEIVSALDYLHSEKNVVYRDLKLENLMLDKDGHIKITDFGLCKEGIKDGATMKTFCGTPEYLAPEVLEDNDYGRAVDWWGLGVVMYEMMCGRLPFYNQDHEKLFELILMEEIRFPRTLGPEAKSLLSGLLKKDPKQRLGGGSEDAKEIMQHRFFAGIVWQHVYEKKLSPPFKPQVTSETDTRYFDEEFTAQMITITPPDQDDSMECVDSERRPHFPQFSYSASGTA
T12 sequence (O00141 whole entry): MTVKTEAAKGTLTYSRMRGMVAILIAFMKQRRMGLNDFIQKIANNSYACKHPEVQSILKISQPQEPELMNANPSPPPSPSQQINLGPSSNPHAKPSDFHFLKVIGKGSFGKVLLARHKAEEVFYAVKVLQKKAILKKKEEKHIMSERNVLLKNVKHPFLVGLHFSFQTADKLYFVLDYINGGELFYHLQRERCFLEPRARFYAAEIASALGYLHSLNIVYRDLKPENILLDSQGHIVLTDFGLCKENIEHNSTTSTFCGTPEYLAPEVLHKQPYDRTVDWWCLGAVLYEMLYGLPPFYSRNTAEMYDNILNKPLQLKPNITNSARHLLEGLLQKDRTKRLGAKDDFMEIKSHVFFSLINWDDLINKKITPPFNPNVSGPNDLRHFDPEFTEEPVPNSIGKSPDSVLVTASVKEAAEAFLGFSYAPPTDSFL

`Cc1cnc(N[C@H]2CC[C@H](N)CC2)nc1-c1cnc2ccc(-c3ccccc3)cn12` [CDDD11-8] was tested, and the remaining activity at 1 µM (PKCa) was 76%, the remaining activity at 1 µM (LATS2) was 30.2% and the remaining activity at 1 µM (PKCd) was 47.6%. For the same compound, the remaining activity at 1 µM (STK38L/NDR2) was 96.7%, the remaining activity at 1 µM (CK1d) was 17.6% and the remaining activity at 1 µM (CDK6/cyclin D3) was 96.6%. The remaining activity at 1 µM (MLK4) was 112%, the remaining activity at 1 µM (CDK3/cyclin E) was 77.9% and the remaining activity at 1 µM (CDK6/cyclin D1) was 80.7%. For the same compound, the remaining activity at 1 µM (PAK5) was 86.2%, the remaining activity at 1 µM (CDK1/cyclin B) was 69.5% and the remaining activity at 1 µM (SGK1) was 95.4%. It also gave a remaining activity at 1 µM (ERN1/IRE1) of 41.8%, a remaining activity at 1 µM (GSK3b) of 94.5% and a remaining activity at 1 µM (MLCK2/MYLK2) of 25.9%. It also gave a remaining activity at 1 µM (EPHA8) of 83.5%, a remaining activity at 1 µM (LYN B) of 88.5% and a remaining activity at 1 µM (MELK) of 66.9%. The remaining activity at 1 µM (AKT1) was 95%, the remaining activity at 1 µM (TYK1/LTK) was 90.8% and the remaining activity at 1 µM (GRK1) was 65%. For the same compound, the remaining activity at 1 µM (LATS1) was 57.4%, the remaining activity at 1 µM (IKKb/IKBKB) was 78.1% and the remaining activity at 1 µM (ERK2/MAPK1) was 109%. It also gave a remaining activity at 1 µM (RSK4) of 43.4%, a remaining activity at 1 µM (VRK2) of 35.7% and a remaining activity at 1 µM (SNARK/NUAK2) of 45.2%. For the same compound, the remaining activity at 1 µM (CDK19/cyclin C) was 38%, the remaining activity at 1 µM (TGFBR2) was 95.6% and the remaining activity at 1 µM (CDK4/cyclin D3) was 79.7%.
